Molecular target: T1, truncated form of PTP1B (corresponding to the first 321 amino acids) (Homo sapiens, UniProt P18031)
T1 construct: truncated form of PTP1B (corresponding to the first 321 amino acids); made in house; host or cells: E. coli
T1 sequence (P18031 1-321): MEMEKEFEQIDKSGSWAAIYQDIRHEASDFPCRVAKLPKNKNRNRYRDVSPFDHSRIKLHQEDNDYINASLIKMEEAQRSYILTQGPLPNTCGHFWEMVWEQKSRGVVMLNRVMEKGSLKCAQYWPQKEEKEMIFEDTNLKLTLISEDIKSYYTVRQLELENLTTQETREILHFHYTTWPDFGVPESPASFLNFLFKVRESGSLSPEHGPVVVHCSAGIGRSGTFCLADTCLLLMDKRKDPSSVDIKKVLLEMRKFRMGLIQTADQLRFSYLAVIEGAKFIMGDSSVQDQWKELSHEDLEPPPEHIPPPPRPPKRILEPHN
Assay: Inhibition of classical PTP1B, p-nitrophenyl phosphate enzyme assay
Assay type: biochemical
Settings: substrate p-nitrophenyl phosphate 0.16 to 10 mM; 100 mM sodium acetate pH 5.5; 25° C., 60 minutes; absorbance at 405 nm; read-out: PTP1B K1 values
Description: These compounds were evaluated for biological activity with a truncated form of PTP1B (corresponding to the first 321 amino acids), which was expressed in E. coli and purified to apparent homogeneity using published procedures well-known to those skilled in the art. The enzyme reactions were carried out using standard conditions essentially as described by Burke et al. (Biochemistry 35; 15989-15996 (1996)). The assay conditions were as follows. Appropriate concentrations of the compounds of the invention were added to the reaction mixtures containing different concentrations of the substrate, p-nitrophenyl phosphate (range: 0.16 to 10 mM--final assay concentration). The buffer used was 100 mM sodium acetate pH 5.5, 50 mM sodium chloride, 0.1% (w/v) bovine serum albumin and 5 mM dithiothreitol (total volume […]). The reaction was started by addition of the enzyme and carried out in microliter plates at 25° C. for 60 minutes. The reactions were stopped by addition of NaOH. The enzyme activity was determined by measurement of the absorbance at 405 nm with appropriate corrections for absorbance at 405 nm of the compounds and p-nitrophenyl phosphate. The data were analyzed using nonlinear regression fit to classical Michaelis Menten enzyme kinetic models. Inhibition is expressed as Ki values in μM.

Row | Ki | Compound
1 | 2 µM | CCSc1nn(-c2ccc(OC)cc2)c(=O)c2c(N)scc12 [Example 2, 7-Amino-4-ethylsulfanyl-2-(4-methoxy-phenyl)thieno[3,4-d]pyridazin-1(2H)-one]
2 | 4 µM | Nc1scc2c1c(=O)oc1ccc3ccccc3c12 [Example 3, 3-Amino4H-naphtho[2,1-b]thieno[3,4-d]pyran-4-one]
